Experimental data from patent publication US20080090896A1, “Strontium-Based Treatment Of Otosclerosis” (priority 2006, published 2008).

System: hearing loss associated with otosclerosis
Conditions: hearing loss patients; 2 mg strontium ranelate daily for 6 months; symptoms measured monthly
Procedure: Hearing Loss. Hearing loss patients generally experience progressive loss of hearing.
The following populations having the symptom stated are treated with a dosing schedule of 2 mg strontium ranelate daily for 6 months.
All symptoms will be measured monthly. All improvements will be recorded and assessed.

Compound: N#Cc1c(N(CC(=O)[O-])CC(=O)[O-])sc(C(=O)[O-])c1CC(=O)[O-].[Sr+2].[Sr+2] [strontium ranelate]
- hearing (gains or cessation of the progression of hearing loss): some hearing gains
